From US5585356A, “Matrix metalloproteinase peptides: role in diagnosis and therapy” (priority 1994, dated 1996)
Where no end group is shown, it is not given here.

Experiments:
type IV procollagenase = type IV procollagenase (Homo sapiens, UniProt P08253); conditions: 10 mM EDTA; 1 mM pAPMA, 37° C.
Method: 20 μl aliquots of A2058 melanoma cell conditioned media were activated in the presence of 1.0 mM pAPMA for the indicated times (min). The reactions were stopped by the addition of EDTA to 10 mM and the samples were electrophoresed on a 9% acrylamide gel with or without gelatin. The gelatin containing gels were developed as zymograms after electrophoresis.
Stock solutions of 0.01M p-APMA in 0.05N NaOH were prepared fresh daily. Proenzyme samples were incubated with a final concentration 0.5 or 1.0 mM p-APMA for varying times (0-16 hours) at 37° C. Following incubation, the samples were analyzed directly by NaDodSO4 -PAGE on 9% acrylamide gels containing 0.1% gelatin (gelatin zymogram). Alternatively, the samples were run on 9% NaDodSO4 -PAGE and electroblotted onto Immobilon P membranes (Millipore).

type IV collagenase = molecular target: T1, type IV collagenase (Homo sapiens, UniProt P08253); experiment: soluble type IV collagenase assay (3H-type IV collagen degradation); type: biochemical; conditions: peptide 0.1 mM; purified activated type IV collagenase, pepsinized type IV collagen (FIG. 11)
T1 construct: endogenous in cells; host or cells: human A2058 melanoma cells
T1 sequence (P08253 110-660): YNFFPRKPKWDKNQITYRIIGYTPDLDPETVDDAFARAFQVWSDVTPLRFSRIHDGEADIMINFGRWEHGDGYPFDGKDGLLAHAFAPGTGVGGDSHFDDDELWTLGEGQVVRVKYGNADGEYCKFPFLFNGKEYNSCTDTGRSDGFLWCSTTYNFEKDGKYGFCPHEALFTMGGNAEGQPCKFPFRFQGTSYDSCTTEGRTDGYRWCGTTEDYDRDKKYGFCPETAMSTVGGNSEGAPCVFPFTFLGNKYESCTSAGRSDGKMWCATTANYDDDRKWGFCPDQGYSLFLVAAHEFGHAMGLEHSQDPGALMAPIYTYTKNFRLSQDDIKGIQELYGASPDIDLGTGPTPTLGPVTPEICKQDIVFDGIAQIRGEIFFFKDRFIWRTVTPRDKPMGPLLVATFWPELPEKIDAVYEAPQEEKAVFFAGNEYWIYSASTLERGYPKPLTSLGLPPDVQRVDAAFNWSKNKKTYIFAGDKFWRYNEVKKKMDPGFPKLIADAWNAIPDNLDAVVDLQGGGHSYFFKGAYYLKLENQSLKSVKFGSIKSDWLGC
Method: FIG. 11 illustrates the dose dependent inhibition of purified activated type IV collagenase cleavage of pepsinized type IV collagen by the designated synthetic peptides. Peptide TMRKPRCGNPDVAN at a concentration of 0.1 mM inhibits 80% of the enzyme activity.
The procedure for the collagenase assay of this example utilized the following preparation.
1. Place enzyme sample activator (usually 1 mM pAPMA) and test solution in 1.5 ml Eppendorf tube. Combined volume must equal 60 μl. Add 1× collagenase buffer, if necessary. If necessary, preincubate.
2. Prepare type Iv collagen substrate by diluting stock ^3 H-type IV collagen (NEN #NET-931 lot #2511-018) 1:120 with 1× collagenase buffer. Heat to 55° C. for 10 minutes and cool on ice.
3. Add 5 μl of diluted mH-type IV collagen solution to each assay tube. Vortex to mix and incubate at 28° C. for 4 hours.
4. At the end of the incubation period, add 2 μl of carrier BSA solution and 7 μl of TCATAP solution. Vortex mix and allow to stand on ice for at least 10 minutes.
5. Pellet the precipitate by centrifuging in the microfuge for 10 minutes with the speed set at 6. Orient the tubes when placing them in the microfuge in order that the position of the pellet will be known.
6. Immediately after centrifugation, aspirate 55 μl of the supernatant and place in a scintillation vial. Add 5 ml of scintillation cocktail, shake well and count. […]

Sequence of type IV procollagenase (P08253 30-660 limits assumed): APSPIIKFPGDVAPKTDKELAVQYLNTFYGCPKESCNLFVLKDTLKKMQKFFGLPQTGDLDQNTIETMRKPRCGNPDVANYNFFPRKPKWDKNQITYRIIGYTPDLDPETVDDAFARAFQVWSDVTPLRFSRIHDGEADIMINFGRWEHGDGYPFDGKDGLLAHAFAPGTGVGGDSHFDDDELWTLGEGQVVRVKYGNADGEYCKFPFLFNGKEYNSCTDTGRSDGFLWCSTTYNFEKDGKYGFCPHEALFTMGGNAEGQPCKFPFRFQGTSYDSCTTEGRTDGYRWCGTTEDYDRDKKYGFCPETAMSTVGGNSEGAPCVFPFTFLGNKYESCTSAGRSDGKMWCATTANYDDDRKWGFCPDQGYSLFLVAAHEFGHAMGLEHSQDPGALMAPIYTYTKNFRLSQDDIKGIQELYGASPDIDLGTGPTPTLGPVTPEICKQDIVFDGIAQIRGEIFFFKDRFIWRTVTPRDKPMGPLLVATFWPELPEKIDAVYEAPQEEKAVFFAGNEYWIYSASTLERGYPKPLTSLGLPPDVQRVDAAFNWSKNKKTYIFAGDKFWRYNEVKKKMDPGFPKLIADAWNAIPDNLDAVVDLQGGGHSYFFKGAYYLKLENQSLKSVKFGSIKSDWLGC

Molecule: O=C(O)CN(CCN(CC(=O)O)CC(=O)O)CC(=O)O [EDTA]
- conversion of 70 kDa band to 62 kDa form (type IV procollagenase): completely inhibited

Molecule: TMRKPRCGNPDVAN [Peptide 74, TMRKPRCGNPDVAN]
- inhibition of enzyme activity (type IV collagenase): 80%
